“Also recorded” adds a separate entry of the source.
Key:
normal heart = experiment: In vivo phage homing to normal heart (phage per gram heart / phage per gram brain); parameters: species or system mice; settings: for Enrichment (relative enrichment compared with insertless phage): Targeted tissue Normal Heart, n=6 or 7 animals; for Enrichment (relative enrichment compared with insertless phage) / Homing to normal heart (in words): individual phage; for Enrichment in normal heart as compared to brain: normal heart versus control brain tissue, phage expressing the peptide; for Homing to normal heart (in words): normal animals
Procedure: Individual phage (5×10^9 TU) were injected intravenously and allowed to circulate for 5 minutes prior to perfusion of the vasculature and harvesting of the heart and brain. The number of phage recovered from the heart (per gram) was normalized by the number of phage recovered from the brain (per gram). Fd-tet was a phage without any additional peptide insert. […] The data shown are the logarithmic means and logarithmic standard errors of the multiple experiments.
In vivo panning was performed to identify phage that selectively home to normal coronary endothelium by injection of phage libraries and isolation of individual phage from the heart as follows. […] Both linear (X7 (SEQ ID NO: 1)) and cyclic (CX7C (SEQ ID NO: 13), CX9C (SEQ ID NO: 14), and CX11C (SEQ ID NO: 15)) libraries were used, where “C” indicates cysteine and “XN” indicates the given number of individually selected amino acids.
Libraries were administered independently with the initial titer of the various libraries. In vivo phage selection was performed as described in Pasqualini and Ruoslahti, Nature 380:364–366 (1996), with a few modifications. In both normal and ischemic targeting, 2.5×10^8 transducing units of the initial phage libraries were injected intravenously into the jugular vein. After 5 minutes of phage circulation in vivo, the heart was arrested by intraventricular injection of a hyperkalemic (30 mM KCl), hypothermic solution of DMEM, and the vasculature cleared of blood by perfusion with 5–10 ml of hyperkalemic DMEM through a left ventricular cannula. After the heart and brain were harvested, homogenized and weighed, phage were rescued by infection with K91 Kan bacteria. For the second and third rounds of selection, 200 normal or 100 ischemic clones were picked from the previous round and individually grown to saturation. Cultures were then pooled, phage particles purified and 10^10 TU of a pool reinjected into similarly treated mice.
(§1) All data were calculated as the ratio of the number of phage obtained per gram of heart tissue to the number of phage obtained per gram of brain tissue. Means, standard deviations, standard errors and parametric statistics were based on the assumption that this ratio is derived from a log-normal distribution.

[1] = system: ischemic/reperfused myocardium; experiment: In vivo phage homing to ischemia-reperfusion injured heart (phage per gram heart / phage per gram brain); parameters: species or system mice; settings: for Enrichment (relative enrichment compared with insertless phage): Targeted tissue Ischemic Heart; for Enrichment (relative enrichment compared with insertless phage) / Homing to ischemic/reperfused myocardium (in words): individual phage; for Homing to ischemic/reperfused myocardium (in words): ischemia-reperfusion injured animals
Procedure: Individual phage obtained from screening in ischemic-reperfused hearts were injected at 5×10^9 TU intravenously into normal animals (open squares) or animals subject to 30 minutes myocardial ischemia by occlusion of the left anterior descending (LAD) coronary artery followed by 30 minutes reperfusion (closed circles). Phage were allowed to circulate for 5 minutes prior to perfusion of the vasculature and harvesting of the heart and brain. The number of phage recovered from the heart (per gram) was normalized by the number of phage recovered from the brain (per gram). […] The data shown are-the logarithmic means and logarithmic standard errors of the multiple experiments.
The number of phage recovered from the heart (per gram) was normalized by the number of phage recovered from the brain (per gram). The data shown are the logarithmic means and logarithmic standard errors for six to seven individual experiments.
as §1
Ischemia-reperfusion was performed as follows using large male CD-1 mice weighing about 40 grams to facilitate the surgical protocol. Briefly, mice were anesthetized by an intramuscular injection of a mixture of xylazine (50 mg/kg) and ketamine (50 mg/kg) and subsequently intubated with an endotracheal tube and ventilated with a mixture of oxygen and room air using a Harvard Apparatus (0.05 ml; 100 bpm). The heart was exposed with a left thoracotomy, and a 7-0 suture was placed under the left anterior descending (LAD) coronary artery; the vessel was occluded by tying a knot over a small piece of polyethylene tubing (PE50). Ischemia was confirmed by cyanosis of the myocardium. After 30 minutes of occlusion, the knot was cut and blood flow restored to the region. Reperfusion was allowed to proceed for 30 minutes before phage targeting to allow for some vascular changes while limiting neutrophil recruitment to the area.

ischemic left ventricle = experiment: Phage recovered from injured left ventricle versus right ventricle and septum, ischemic hearts; format: in vivo, mice; settings: animals after myocardial ischemia-reperfusion
Procedure: The number of phage recovered from the left ventricle (g^−1) was normalized by the number of phage recovered from the right ventricle and septum (g^−1). The overall data shown are a logarithmic mean and logarithmic standard deviation for 47 normal and 35 ischemic hearts. The data for phage bearing SEQ ID NO: 10 (R13) are for six individual animals each.
Ischemia-reperfusion was performed as follows using large male CD-1 mice weighing about 40 grams to facilitate the surgical protocol. Briefly, mice were anesthetized by an intramuscular injection of a mixture of xylazine (50 mg/kg) and ketamine (50 mg/kg) and subsequently intubated with an endotracheal tube and ventilated with a mixture of oxygen and room air using a Harvard Apparatus (0.05 ml; 100 bpm). The heart was exposed with a left thoracotomy, and a 7-0 suture was placed under the left anterior descending (LAD) coronary artery; the vessel was occluded by tying a knot over a small piece of polyethylene tubing (PE50). Ischemia was confirmed by cyanosis of the myocardium. […]
As a further test of specificity for homing to ischemic heart, phage homing to the injured left ventricle was compared to homing to the normal right ventricle and septum. […] When the ratio of phage accumulation in the left ventricle only is calculated relative to accumulation in the brain, the preferential accumulation of […] […]

Substance: CLHRGNSC (phage displayed) [SEQ ID NO: 9]
- Enrichment (relative enrichment compared with insertless phage) (normal heart): ~2 fold
- Enrichment (relative enrichment compared with insertless phage) (normal heart; listed as 9): 2-fold
- Enrichment in normal heart as compared to brain (normal heart): at least two-fold
- Enrichment (relative enrichment compared with insertless phage) [1]: ~2 fold

Substance: GGGVFWQ (phage displayed) [SEQ ID NO: 2]
- Enrichment (relative enrichment compared with insertless phage) (normal heart): ~5 fold
- Enrichment (relative enrichment compared with insertless phage) (normal heart; listed as 2): 5-fold
- Homing to normal heart (in words) (normal heart): binds to normal heart; also recorded: strongly targeted the normal myocardium
- Homing to ischemic/reperfused myocardium (in words) [1]: remained enriched

Substance: RPGRLNG (phage displayed) [SEQ ID NO: 8]
- Homing to normal heart (in words) (normal heart): did not home to normal heart; also recorded: clearly did not target the normal myocardium
- Homing to ischemic/reperfused myocardium (in words) [1]: did not change

Substance: VVLVTSS (phage displayed) [SEQ ID NO: 4]
- Enrichment (relative enrichment compared with insertless phage) (normal heart): ~2 fold
- Enrichment (relative enrichment compared with insertless phage) (normal heart; listed as 4): 2-fold
- Enrichment in normal heart as compared to brain (normal heart): at least two-fold

Substance: HGRVRPH (phage displayed) [SEQ ID NO: 3]
- Enrichment (relative enrichment compared with insertless phage) (normal heart): ~2 fold
- Enrichment (relative enrichment compared with insertless phage) (normal heart; listed as 3): 2-fold
- Enrichment in normal heart as compared to brain (normal heart): at least two-fold

Substance: CRSWNKADNRSC (phage displayed) [SEQ ID NO: 10]
- Homing to normal heart (in words) (normal heart): did not target the normal heart
- Preferential homing to the ischemic left ventricle versus right ventricle (in words) (ischemic left ventricle): more phage were recovered from the injured left ventricle than the right ventricle; also recorded: preferentially homed to the ischemic left ventricle as compared to the uninjured right ventricle
- Enrichment (relative enrichment compared with insertless phage) [1]: 5 fold
- Enrichment (relative enrichment compared with insertless phage) ([1]; listed as 10): 5-fold
- Phage accumulation in the left ventricle only relative to accumulation in the brain ([1]; ischemia-reperfusion injured hearts, left ventricle only): 7 fold

— patent publication US7144860B2, “Heart homing conjugates” (priority 1999, dated 2006)
